# Laboratory results as given in ChEMBL document CHEMBL5365556 (ACS Med Chem Lett, 2023).
# pIC50: −log10 of the molar value.
# Test system: THP-1
# Test: Cytotoxicity against human THP-1 cells assessed as reduction in cell viability measured after 24 hrs by Celltiter-Glo assay
# Type: functional, cell-based
# Conditions: THP-1, 24 h
structure (smiles),measurement,value
CCN(CC)C(=S)SSC(=S)N(CC)CC,pIC50,5.15
